# Results as given in ChEMBL document CHEMBL5038615, “Discovery of a cinnamyl piperidine derivative as new neddylation inhibitor for gastric cancer treatment” (Eur J Med Chem, 2021).
# Calls of active or inactive are those of the source. The rule behind the calls is not given here.
# How the values were obtained:
# [1] = tested on: MGC-803; assay: Induction of apoptosis in human MGC-803 cells assessed as necrotic cells at 7.5 uM measured after 48 hrs by AnnexinV/FITC staining based flow cytometry method (reference value: 0.2%); format: functional
# [2] = tested on: MGC-803; assay: Antiproliferative activity against human MGC-803 cells assessed as inhibition of cell proliferation measured after 72 hrs by MTT assay; format: functional, cell-based; details: MGC-803, 72 h
# [3] = tested on: HGC-27; assay: Induction of apoptosis in human HGC-27 cells assessed as viable cells at 6 uM measured after 24 hrs by AnnexinV/FITC staining based flow cytometry method (reference value: 95.7%); format: functional; details: read-out: Activity
# [4] = tested on: HGC-27; assay: Induction of apoptosis in human HGC-27 cells assessed as necrotic cells at 6 uM measured after 24 hrs by AnnexinV/FITC staining based flow cytometry method (reference value: 1.2%); format: functional
# [5] = tested on: MGC-803; assay: Antitumour activity against human MGC-803 cells xenografted in NOD-SCID mouse assessed as reduction on tumour growth at 50 mg/kg/day, IG measured after 21 days relative to control; format: functional; details: MGC-803, po, 504 h, time 21 day, read-out: TGI
# [6] = tested on: MGC-803; assay: Induction of apoptosis in human MGC-803 cells assessed as viable cells at 7.5 uM measured after 24 hrs by AnnexinV/FITC staining based flow cytometry method (reference value: 94.8%); format: functional; details: read-out: Activity
# [7] = tested on: HepG2; assay: Antiproliferative activity against human HepG2 cells assessed as inhibition of cell proliferation measured after 72 hrs by MTT assay; format: functional, cell-based; details: HepG2, 72 h
# [8] = tested on: HGC-27; assay: Induction of apoptosis in human HGC-27 cells assessed as early apoptotic cells at 6 uM measured after 48 hrs by AnnexinV/FITC staining based flow cytometry method (reference value: 5.8%); format: functional
# [9] = tested on: MGC-803; assay: Cell cycle arrest in human MGC-803 cells assessed as accumulation of cells at G0/G1 phase at 2.5 uM measured after 24 hrs by Flowcytometry assay (reference value: 46.01%); format: functional
# [10] = tested on: MGC-803; assay: Induction of apoptosis in human MGC-803 cells assessed as viable cells at 2.5 uM measured after 24 hrs by AnnexinV/FITC staining based flow cytometry method (reference value: 94.8%); format: functional; details: read-out: Activity
# [11] = tested on: HGC-27; assay: Induction of apoptosis in human HGC-27 cells assessed as viable cells at 3 uM measured after 24 hrs by AnnexinV/FITC staining based flow cytometry method (reference value: 95.7%); format: functional; details: read-out: Activity
# [12] = tested on: MGC-803; assay: Cell cycle arrest in human MGC-803 cells assessed as accumulation of cells at G0/G1 phase at 5 uM measured after 24 hrs by Flowcytometry assay (reference value: 46.01%); format: functional
# [13] = tested on: HGC-27; assay: Induction of apoptosis in human HGC-27 cells assessed as upregulation of Bax at 3 to 9 uM measured after 24 hrs by Western blot assay; format: functional, cell-based; details: dose 3-9 µM
# [14] = tested on: HGC-27; assay: Antiproliferative activity against human HGC-27 cells assessed as inhibition of cell proliferation at 0.39 to 50 uM measured upto 72 hrs by MTT assay; format: functional, cell-based; details: dose 0.39-50 µM, time hrs <=72
# [15] = tested on: MGC-803; assay: Induction of apoptosis in human MGC-803 cells assessed as viable cells at 7.5 uM measured after 48 hrs by AnnexinV/FITC staining based flow cytometry method (reference value: 97.4%); format: functional; details: read-out: Activity
# [16] = tested on: MGC-803; assay: Induction of apoptosis in human MGC-803 cells assessed as necrotic cells at 2.5 uM measured after 48 hrs by AnnexinV/FITC staining based flow cytometry method (reference value: 0.2%); format: functional
# [17] = tested on: HGC-27; assay: Induction of apoptosis in human HGC-27 cells assessed as early apoptotic cells at 9 uM measured after 24 hrs by AnnexinV/FITC staining based flow cytometry method (reference value: 0.7%); format: functional
# [18] = tested on: MGC-803; assay: Induction of apoptosis in human MGC-803 cells assessed as early apoptotic cells at 7.5 uM measured after 48 hrs by AnnexinV/FITC staining based flow cytometry method (reference value: 1.5%); format: functional
# [19] = tested on: MGC-803; assay: Induction of apoptosis in human MGC-803 cells assessed as necrotic cells at 5 uM measured after 24 hrs by AnnexinV/FITC staining based flow cytometry method (reference value: 1.9%); format: functional
# [20] = tested on: HGC-27; assay: Induction of apoptosis in human HGC-27 cells assessed as viable cells at 9 uM measured after 24 hrs by AnnexinV/FITC staining based flow cytometry method (reference value: 95.7%); format: functional; details: read-out: Activity
# [21] = tested on: MGC-803; assay: Induction of apoptosis in human MGC-803 cells assessed as up-regulation of Nrf2 expression in cytoplasm at 2.5 to 7.5 uM measured after 24 hrs by Western blot assay; format: functional, cell-based; details: dose 2.5-7.5 µM
# [22] = tested on: HGC-27; assay: Induction of apoptosis in human HGC-27 cells assessed as early apoptotic cells at 9 uM measured after 48 hrs by AnnexinV/FITC staining based flow cytometry method (reference value: 5.8%); format: functional
# [23] = tested on: MGC-803; assay: Inhibition of cell migration in human MGC-803 cells at 1.25 to 5 uM measured after 24 to 48 hrs by wound healing assay based inverted microscopic analysis; format: functional; details: dose 1.25-5 µM, time 24-48 hrs
# [24] = tested on: MGC-803; assay: Antiproliferative activity against human MGC-803 cells assessed as cell survival at 7.5 uM pre-incubated with Z-VAD-FMK followed by compound addition and measured after 24 hrs by MTT assay; format: functional, cell-based
# [25] = tested on: HGC-27; assay: Induction of apoptosis in human HGC-27 cells assessed as upregulation of Bak at 3 to 9 uM measured after 24 hrs by Western blot assay; format: functional, cell-based; details: dose 3-9 µM
# [26] = tested on: MGC-803; assay: Induction of apoptosis in human MGC-803 cells assessed as late apoptotic cells at 5 uM measured after 48 hrs by AnnexinV/FITC staining based flow cytometry method (reference value: 0.9%); format: functional
# [27] = tested on: MGC-803; assay: Induction of apoptosis in human MGC-803 cells assessed as viable cells at 5 uM measured after 48 hrs by AnnexinV/FITC staining based flow cytometry method (reference value: 97.4%); format: functional; details: read-out: Activity
# [28] = tested on: MGC-803; assay: Induction of apoptosis in human MGC-803 cells assessed as down-regulation of Nrf2 expression in nucleus at 2.5 to 7.5 uM measured after 24 hrs by Western blot assay; format: functional, cell-based; details: dose 2.5-7.5 µM
# [29] = tested on: HGC-27; assay: Antiproliferative activity against human HGC-27 cells assessed as cell survival at 7.5 uM preincubated with Z-VAD-FMK followed by compound addition and measured after 24 hrs by MTT assay; format: functional, cell-based
# [30] = tested on: MGC-803; assay: Antitumour activity against human MGC-803 cells xenografted in NOD-SCID mouse assessed as reduction on tumour growth at 100 mg/kg/day, IG measured after 21 days relative to control; format: functional; details: MGC-803, po, 504 h, time 21 day, read-out: TGI
# [31] = tested on: HGC-27; assay: Induction of apoptosis in human HGC-27 cells assessed as viable cells at 3 uM measured after 48 hrs by AnnexinV/FITC staining based flow cytometry method (reference value: 93.18%); format: functional; details: read-out: Activity
# [32] = tested on: HGC-27; assay: Induction of apoptosis in human HGC-27 cells assessed as downregulation of Bcl-2 at 3 to 9 uM measured after 24 hrs by Western blot assay; format: functional, cell-based; details: dose 3-9 µM
# [33] = tested on: MGC-803; assay: Induction of apoptosis in human MGC-803 cells assessed as ROS levels at 5 uM measured after 24 hrs by DCFH-DA staining based flow cytometry assay (reference value: 3.3%); format: functional
# [34] = tested on: MGC-803; assay: Induction of apoptosis in human MGC-803 cells assessed as necrotic cells at 2.5 uM measured after 24 hrs by AnnexinV/FITC staining based flow cytometry method (reference value: 1.9%); format: functional
smiles,measurement,setting,value
CCCCCc1ccc(NC(=O)C2CCN(C/C=C/c3ccccc3)CC2)cc1,Activity,[1],0%
same,IC50,[2],2550 nM
same,viability at 6 µM,[3],25.4%
same,Activity,[4],0.2%
same,inhibition in vivo at 50 mg/kg/day,[5],32.3%
same,viability at 7.5 µM,[6],9.1%
same,IC50,[7],2890 nM
same,Activity,[8],32.2%
same,Activity,[9],48.87%
same,viability at 2.5 µM,[10],93.5%
same,viability at 3 µM,[11],87.5%
same,Activity,[12],44.87%
same,Activity,[13],Dose-Dependent Effect
same,Activity,[14],Dose-Dependent Effect
same,viability at 7.5 µM,[15],0.4%
same,Activity,[16],2.9%
same,Activity,[17],2.3%
same,Activity,[18],4%
same,Activity,[19],8.2%
same,viability at 9 µM,[20],20.9%
same,Activity,[21],Active
same,Activity,[22],0.2%
same,Activity,[23],Dose-Dependent Effect
same,Activity,[24],Active
same,Activity,[25],Dose-Dependent Effect
same,Activity,[26],51%
same,viability at 5 µM,[27],38.4%
same,Activity,[28],Active
same,Activity,[29],Active
same,inhibition in vivo at 100 mg/kg/day,[30],39.2%
same,viability at 3 µM,[31],64.4%
same,Activity,[32],Dose-Dependent Effect
same,Activity,[33],5.4%
same,Activity,[34],0.8%
